According to patent publication US5362740A, “Dihydrobenzofuran carboxamides and process for their preparation” (Farmitalia Carlo Erba S.r.l., priority 1990, dated 1994):

Columns and labels:
[1] = target: T1, 5HT3 receptor (Rattus norvegicus, UniProt P35563); test: Inhibition of the Bezold-Jarisch chemoreflex evoked by 5-HT in the anesthetized rat (in vivo 5HT3 antagonist activity); set-up: evoked by 5-HT in the anesthetised rat; from tissue; host or cells: whole anesthetized rat (in vivo); conditions: 5-HT 20 μg/kg I.V.; for % inhibition: mean ± S.E.M. from 6 animals, *p < 0.01 vs controls (Dunnett's test); for ED50: iv, I.V., anesthetized rat, read-out: ED50 (limits)
T1 sequence (P35563 24-483): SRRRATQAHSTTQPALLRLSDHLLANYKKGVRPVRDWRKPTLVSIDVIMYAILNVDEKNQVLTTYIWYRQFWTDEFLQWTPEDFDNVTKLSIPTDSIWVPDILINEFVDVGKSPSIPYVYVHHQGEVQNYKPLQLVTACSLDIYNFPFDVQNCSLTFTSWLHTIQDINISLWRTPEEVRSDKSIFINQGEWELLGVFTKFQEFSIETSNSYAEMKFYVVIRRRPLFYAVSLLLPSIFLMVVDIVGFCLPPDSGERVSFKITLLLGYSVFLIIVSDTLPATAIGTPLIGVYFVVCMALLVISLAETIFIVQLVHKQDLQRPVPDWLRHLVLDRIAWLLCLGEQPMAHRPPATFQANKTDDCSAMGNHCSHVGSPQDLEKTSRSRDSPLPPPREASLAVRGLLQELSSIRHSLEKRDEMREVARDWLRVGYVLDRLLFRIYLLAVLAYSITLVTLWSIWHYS
Experimental: Ther. 248, 197-201 (1989).
Inhibition of the Bezold-Jarisch reflex elicited by 5-HT (20 μg/
Values are mean ± S.E.M. from 6 animals

[2] = target: T1, 5HT3 receptor; test: Inhibition of the binding of ^3 H-GR65630; 5-HT3 binding affinity for rat entorhinal cortex; set-up: labeled in the entorhinal cortex of the rat brain; from tissue; host or cells: rat brain entorhinal cortex; conditions: for fitting model of interaction / displacement of ^3 H-GR 65630: rat entorhinal cortex
[3] = target: 5-HT3 receptor; test: as above; conditions: [^3 H] GR 65630 labeled 5HT3 sites; rat entorhinal cortex; two site non-linear fitting, low

Row | Structure (SMILES) | % inhibition ([1]; 1 μg/kg I.V.) [%] | % inhibition ([1]; 3 μg/kg I.V.) [%] | % inhibition ([1]; 10 μg/kg I.V.) [%] | ED50 [1] [µg/kg] | fitting model of interaction / displacement of ^3 H-GR 65630 [2] | Ki [3] [nM] | % inhibition ([1]; 0.1 μg/kg I.V.) [%] | % inhibition ([1]; 0.3 μg/kg I.V.) [%] | Ki [2] [nM]
1 | Cc1nccn1CC1CCc2c(c3ccccc3n2C)C1=O (racemic) [Ondansetron, (±)-1,2,3,4-tetrahydro-9-methyl-3-(2-methylimidazol-1-yl-methyl)-carbazol-4-one, reference compound] | 32.86 ± 8.58 | 58.42 ± 3.89 | 81.21 ± 1.82 | 2.25 | two site non-linear fitting model |  |  |  | 
2 | CN1C2CCCC1CC(NC(=O)c1cc(Cl)c(N)c3c1OCC3)C2 (stereo not drawn) [FCE 27270, 4-amino-5-chloro-N-(9-methyl-9-azabicyclo[3.3.1]non-3-yl)-2,3-dihydrobenzo[b]furan-7-carboxamide] | 89.11 ± 3.39 |  |  | 0.2 | two site non-linear fitting model | 39 | 37.25 ± 2.77 | 54.09 ± 3.39 | 0.092
3 | CN1C2CCC1CC(NC(=O)c1cc(Cl)c(N)c3c1OCC3)C2 (stereo not drawn) [FCE 27271, 4-amino-5-chloro-N-(8-methyl-8-azabicyclo[3.2.1]oct-3-yl)-2,3-dihydrobenzo[b]furan-7-carboxamide] | 82.54 ± 2.33 |  |  | 0.81 | two site non-linear fitting model | 96.2 | 23.83 ± 5.50 | 55.69 ± 4.05 | 0.833
4 | CN1C2CCC1CC(OC(=O)c1cc(Cl)cc(Cl)c1)C2 (stereo not drawn) [MDL 72222, reference compound] |  |  |  |  | one site non-linear fitting |  |  |  | 
5 | CCN(CC)CCNC(=O)c1cc(Cl)c(N)cc1OC [Metoclopramide, reference compound] |  |  |  |  | one site non-linear fitting |  |  |  | 
